Assay [1] has as its target T1, SBD1-2(D417F) (Lactococcus lactis, UniProt Q9CES5, D417F).
T1 sequence (Q9CES5 27-484 D417F): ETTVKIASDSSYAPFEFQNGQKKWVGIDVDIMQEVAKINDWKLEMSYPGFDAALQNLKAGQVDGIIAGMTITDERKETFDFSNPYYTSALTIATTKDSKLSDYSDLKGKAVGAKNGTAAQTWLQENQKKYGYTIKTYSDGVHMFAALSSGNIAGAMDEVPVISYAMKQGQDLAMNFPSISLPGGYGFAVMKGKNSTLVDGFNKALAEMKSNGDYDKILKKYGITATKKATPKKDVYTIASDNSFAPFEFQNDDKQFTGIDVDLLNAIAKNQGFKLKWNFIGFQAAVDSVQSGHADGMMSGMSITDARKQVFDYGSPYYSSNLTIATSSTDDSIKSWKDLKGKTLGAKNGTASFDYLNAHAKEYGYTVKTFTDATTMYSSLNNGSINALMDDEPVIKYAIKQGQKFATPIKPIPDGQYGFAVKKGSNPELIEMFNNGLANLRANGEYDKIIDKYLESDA
Nature of the assay: Isothermal titration calorimetry, tandem variant with inactive SBD2. Conditions: binding to SBD1 in SBD1-2(D417F) (inactive SBD2); ITC. (In general: In ITC the heat of successive injections is recorded.)

The target of assay [2] is T2, SBD1 in SBD1-Δ5-SBD2 (Lactococcus lactis, UniProt Q9CES5, DEL252-256).
T2 sequence (Q9CES5 27-484 DEL252-256): T1 sequence (Q9CES5 27-484 D417F)
In words: Isothermal titration calorimetry, SBD1 site of linker deletion mutant. In kind it is binding. The settings on record: ITC.

The target of assay [3] is T3, SBD1^A (SBD1(T159C/G87C)) (Lactococcus lactis, UniProt Q9CES5, T159C, form not given).
T3 sequence (Q9CES5 29-251 T159C): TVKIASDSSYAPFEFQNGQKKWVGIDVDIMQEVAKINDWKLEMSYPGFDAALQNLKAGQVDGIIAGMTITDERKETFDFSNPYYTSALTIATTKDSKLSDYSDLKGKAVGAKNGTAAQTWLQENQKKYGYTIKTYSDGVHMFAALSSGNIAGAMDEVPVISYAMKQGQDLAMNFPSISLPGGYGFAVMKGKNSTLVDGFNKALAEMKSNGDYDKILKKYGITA
Nature of the assay: smFRET / ALEX spectroscopy titration, single SBD1^A. It is filed as binding. The settings on record: single domain SBD1^A, Alexa Fluor 555/647, read-out: apparent KD.

The target in assay [4] is T4, SBD1^A-2 (Lactococcus lactis, UniProt Q9CES5, T159C, form not given).
T4 sequence (Q9CES5 27-484 T159C): T1 sequence (Q9CES5 27-484 D417F)
In words: smFRET / ALEX spectroscopy titration, tandem SBD1^A-2. In kind it is binding. The settings on record: Alexa Fluor 555/647, read-out: apparent KD.

The target in assay [5] is T5, SBD1(E184W)-2 (Lactococcus lactis, UniProt Q9CES5, E184W).
T5 sequence (Q9CES5 27-484 E184W): T1 sequence (Q9CES5 27-484 D417F)
In words: Isothermal titration calorimetry, tandem variant with inactive SBD1. The settings on record: binding to SBD2 in SBD1-2(E184W) (inactive SBD1); ITC.

In assay [6] the target is T6, SBD2 in SBD1-Δ5-SBD2 (Lactococcus lactis, UniProt Q9CES5, DEL252-256).
T6 sequence (Q9CES5 27-484 DEL252-256): T1 sequence (Q9CES5 27-484 D417F)
In words: Isothermal titration calorimetry, SBD2 site of linker deletion mutant. The settings on record: SBD1-Δ5-SBD2, high-affinity site (SBD2), no asparagine; ITC figure 6f. In kind it is binding.

For assay [7], the target named is T7, SBD2^C (SBD2(T369C/S451C)) (Lactococcus lactis, UniProt Q9CES5, S451C/T369C).
T7 sequence (Q9CES5 255-484 T369C/S451C): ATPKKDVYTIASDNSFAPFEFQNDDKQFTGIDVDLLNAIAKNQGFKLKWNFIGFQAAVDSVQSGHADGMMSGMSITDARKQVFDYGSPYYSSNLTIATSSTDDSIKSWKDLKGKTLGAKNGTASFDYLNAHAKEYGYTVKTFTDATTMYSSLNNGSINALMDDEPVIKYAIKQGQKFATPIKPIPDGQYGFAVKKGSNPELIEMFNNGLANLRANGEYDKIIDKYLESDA
Nature of the assay: smFRET / ALEX spectroscopy titration, single SBD2^C. The settings on record: single domain SBD2^C, Alexa Fluor 555/647, read-out: apparent KD. It is filed as binding.

The target in assay [8] is T8, SBD1-2^C (Lactococcus lactis, UniProt Q9CES5, S451C/T369C).
T8 sequence (Q9CES5 27-484 T369C/S451C): T1 sequence (Q9CES5 27-484 D417F)
Nature of the assay: smFRET / ALEX spectroscopy titration, tandem SBD1-2^C. It is filed as binding. The settings on record: Alexa Fluor 555/647, read-out: apparent KD.

Structures are written as SMILES. Several values for one entry are separate records, joined by “and”; a condition that tells them apart may be missing. Equal entries are not always repeated.

The values that follow come from article PMC8025302, “Structural and biophysical characterization of the tandem substrate-binding domains of the ABC importer GlnPQ” (Open Biology, 2021).

Regarding `NC(=O)C[C@H](N)C(=O)O` [asparagine], the Kd was determined as 400 ± 60 nM in assay [1], 60 nM in assay [2], 140 nM in assay [3] and 75 nM in assay [4].
In the case of `NC(=O)CC[C@H](N)C(=O)O` [glutamine], the Kd is 1500 ± 800 nM in assay [5]; 25800 nM and 19000 nM in assay [2]; 1700 nM in assay [6]; 1500 nM and ~1500 nM in assay [7]; 900 nM and ~900 nM in assay [8]; 130000 nM in assay [3]. In addition, the Kd in assay [4] is 300000 nM.
